Measurements published in US20080312086A1, “PEST CONTROL SHEET” (MAKHTESHIM CHEMICAL WORKS LTD., priority 2000, published 2008).

Assays:
[1] = tested on: weeds; test: Weed control by the pest control sheet in a watermelon crop; format: in vivo
From the text: (§1) The present invention further provides a method for pest control. Said method may be applied in agriculture, horticulture or in garden maintenance. In agriculture and horticulture said method is applied as follows: subsequent to physically preparing the field and soil for planting, e.g. plowing, fumigating the soil and laying down of an irrigation system, the sheet is spread over the field so as to cover the soil [FIG. II, (1)], and is then secured to the ground. The sheet [FIG. II, (2), (3)] is then punctured at the spot where a seedling is intended to be planted so that a seedling [FIG. II, (4)] may be inserted through the hole [FIG. II, (5)] and planted in the soil. […] When the sheet contains a pesticide in the top layer, then pest control is maintained above the soil, in the area of the plant. This may also help in protecting the fruit/vegetable itself. Said method can be applied in gardens in a similar manner as described above. The sheet and method of the present invention have been applied to a watermelon crop. The experiments were conducted with three different concentrations of herbicide in the bottom layer.

[2] = tested on: watermelon crop; test: Watermelon crop development under the pest control sheet; format: in vivo
From the text: as §1

[3] = 0.5 weight % of pesticide in bottom layer of sheet
[4] = 1 weight % of pesticide in bottom layer of sheet
[5] = 2 weight % of pesticide in bottom layer of sheet

CCOc1cc(Oc2ccc(C(F)(F)F)cc2Cl)ccc1[N+](=O)[O-] [Oxyfluorfen, 2-chloro-a,a,a-trifluoro-p-tolyl 3-ethoxy-4-nitrophenyl ether]
100%: Weed control (% of weed control on a scale of 0-100, 100 indicating total prevention of weed emergence) [1, 3] | Weed control (% of weed control on a scale of 0-100, 100 indicating total prevention of weed emergence) [1, 4] | Weed control (% of weed control on a scale of 0-100, 100 indicating total prevention of weed emergence) [1, 5] | Development (% of crop development in comparison to healthy crop on a scale of 0-100, 100 indicating a healthy crop) [2, 3] | Development (% of crop development in comparison to healthy crop on a scale of 0-100, 100 indicating a healthy crop) [2, 4] | Development (% of crop development in comparison to healthy crop on a scale of 0-100, 100 indicating a healthy crop) [2, 5]
